Experimental data: patent US20090215713A1, “Use of atp for the manufacture of a medicament for the prevention and treatment of oxidative stress and related conditions” (priority 2004, published 2009)
Entries after “also recorded” stand apart in the source; their conditions may differ.

Tests used:
[1] = test system: IL-6; assay: LPS+PHA-induced IL-6 secretion in whole blood under oxidative stress (H2O2); assay type: cell-based, human; conditions: absence or presence of H2O2 (1 and 10 mM)
Experimental: (§1) FIG. 12 Effect of ATP on LPS+PHA-induced IL-6 secretion in whole blood from healthy subjects under conditions of oxidative stress. Two concentrations of H2O2 (1 and 10 mM) were added to whole blood, together with the indicated concentrations of ATP. Then, blood was exposed to 10 μg/ml LPS and 1 μg/ml PHA, and incubated for 24 h. The IL-6 released into the supernatants was analyzed using the ELISA method. […] Data are expressed at the mean values; error bars represent SEM.
(§2) Whole blood of healthy subjects was collected as described for Experiment 2, and pre-incubated with 1 or 10 mM H2O2 at 5% CO2 and 37° C. for 15 min. Then, ATP was added to the blood at final concentrations of 1-300 μM for the 30 min incubation step, and then incubated as in Experiment 2 with LPS/PHA for 24 hours.

[2] = ATP infusions in pre-terminal cancer patients; assay type: in vivo, human
Experimental: Patients with different diseases received infusions of 10-75 μg/kg·min over 8-24 h, at intervals of 1-4 weeks in different randomized clinical trials. In all cases, the first. infusion was given under clinical supervision, subsequent infusions were given in the setting of private homes. Preliminary results in small numbers of patients with persistent rheumatoid arthritis, chronic fatigue syndrome, and cancer in the pre-terminal stage, and lung cancer during curative radiotherapy are given below.
This study was performed in patients of different tumour types with a life expectation of between 8 and 12 weeks. Patients received a maximum of 8 ATP infusions (8 h) at an infusion rate of max. 50 μg/kg·min. […] These subjective improvements were supported by objective outcome assessment using validated questionnaires for self-reliance (Groningen Activity Restriction Scale, GARS), fatigue (Short Fatigue Questionnaire, Smets et al.), and appetite (visual analogue scale, VAS). Below, some of the major effects in these five patients are summarized. Patient 1 (non-small-cell lung cancer): Despite a very low ATP dose (=20-30 μg/kg·min), this patient spontaneously reported that they felt more energetic. Before the study, the patient was not able to independently dress, undress, get in/out of bed, to get out of a chair, or to wash their hands, face or body. After 8 weeks of ATP, the patient was able to perform all of these activities independently. Over 8 weeks, their appetite improved markedly: EORTC-QLQ-30 (4-point scale): improvement from 4 to 1, and on VAS [0-100 mm], from 13 to 63 before lunch, and from 17 to 70 before dinner. The patient's treating pulmonologist concluded a “miraculous improvement” over the 8-week treatment period. On request of the patient, ATP infusions were continued. Patient 2 (primary liver carcinoma): This patient, who suffered from marked anorexia, spontaneously reported that they were “eating again like a building worker” after 8 weeks of ATP treatment. […] Furthermore, the patient felt less tired within 2 weeks of starting ATP infusions. Patient 3 (melanoma): This patient reported marked improvement in appetite. This was confirmed by outcome assessment (VAS), in addition, marked amelioration in fatigue and self reliance was found. After 8 infusion, the patient pledged to continue the ATP infusions. […] After 5 infusions, the patient decided that they felt so much better that they wanted to continue the infusions after the study. Patient 5 (pancreas cancer; study still ongoing): After 4 infusions, the patient noted to feel much more energetic.

[3] = Randomized clinical trial of ATP in advanced non-small-cell lung cancer (prior art); assay type: in vivo, human; conditions: unpublished data 2005
[4] = previous study, ATP infusion during 30 hrs; cited from earlier work
[5] = test system: TNFα; assay: TNFα secretion in whole blood after γ-irradiation; assay type: cell-based; conditions: 300 μM ATP, 16 Gy, 3 and 5 h post-irradiation
Experimental: FIG. 18 Effect of ATP on cytokine secretion in whole blood after γ-irradiation. Blood was pre-incubated with 300 μM ATP or medium (control) for 30 minutes and then irradiated with γ-radiation (16 Gy).
Samples with 5 ml of blood were pre-incubated with 300 μM ATP or medium (control) for 30 minutes. Then, at t=0, each blood sample was irradiated with γ-radiation at a dose of 16 Gy. Preceding irradiation (baseline) and at 1 h, 3 h and 5 h post-irradiation, a sample was taken for analysis of intracellular GSH and GSH/GSSG ratios according to standard methods, as well as for cytokine analysis by the ELISA method.

[6] = Side effects of intravenous ATP infusions; assay type: in vivo, human; conditions: over 60 home infusions in cancer patients
Experimental: For reasons of patients' safety, there has been no attempt to administer ATP outside a strict medical setting to date. In particular, WO 03/061568 (Rapaport) discloses the administration of ATP over a period of typically 8-10 hours in an outpatient setting within the hospital. […] Thus, both our data and US 2003/0109486 contradict the disclosure of WO 03/061568.
In order to determine the tolerance for ATP as well as the maximally tolerated dose of ATP, the first ATP infusion is preferably administered under medical supervision, usually in an in- or outpatient setting. Subsequent infusions can either be started at the hospital day care centre, at private homes, nursing homes, etc. according to a standardized protocol.

[7] = test system: TNF-α; assay: LPS+PHA-induced TNF-α secretion in whole blood under oxidative stress (H2O2); assay type: cell-based, human
Experimental: as §1, with “FIG. 10” for “FIG. 12”, “LPS+PHA-induced TNF-α” for “LPS+PHA-induced IL-6”, “blood, followed by the incubation” for “blood, together”, “the” for “the indicated”, “The TNF-α” for “The IL-6”, “expressed as” for “expressed at”
as §2

[8] = Randomized ATP infusions in non-small-cell lung cancer patients, stage IIIB and IV; assay type: in vivo, human
Experimental: Patients with non-small-cell lung cancer, stage IIIB and IV, in the palliative treatment stage, were randomized to receive either ATP infusions (total of 10 infusions over 24 weeks) or no treatment. Outcome assessment (quality of life, blood values) was performed at regular intervals.

Structure (SMILES): Nc1ncnc2c1ncn2[C@@H]1O[C@H](COP(=O)(O)OP(=O)(O)OP(=O)(O)O)[C@@H](O)[C@H]1O [ATP, Adenosine 5′-triphosphate]
- effect on LPS+PHA-induced IL-6 release [1]: no effect; also recorded: not influenced
- appetite VAS [0-100 mm] before dinner ([2]; Patient 1, before): 17 mm
- appetite VAS [0-100 mm] before lunch ([2]; Patient 1, before): 13 mm
- appetite, EORTC-QLQ-30 (4-point scale) ([2]; Patient 1, before): 4
- appetite VAS [0-100 mm] before dinner ([2]; Patient 1, over 8 weeks of ATP): 70 mm
- appetite VAS [0-100 mm] before lunch ([2]; Patient 1, over 8 weeks of ATP): 63 mm
- appetite, EORTC-QLQ-30 (4-point scale) ([2]; Patient 1, over 8 weeks of ATP): 1
- appetite VAS (0-100) ([2]; Patient 2, before): 20
- appetite VAS (0-100) ([2]; Patient 2, within 4 weeks): 95
- fatigue, 7-point scale (mean of four items of SFQ) ([2]; Patient 4, after 4 weeks of ATP infusions): 5.8
- fatigue, 7-point scale (mean of four items of SFQ) ([2]; Patient 4, before): 2.8
- patients spontaneously reporting marked improvements ([2]; patients who had completed >4 ATP infusions): 5 out of 19
- effect on blood sedimentation rate [3]: neither an effect
- life-threatening side effects [4]: did not find any
- effect on irradiation-induced TNFα stimulation [5]: completely blocked
- serious side effects grade 3-4 on the WHO Common Toxicity Criteria scale [6]: no serious side effects
- effect on LPS+PHA-induced TNF-α release ([7]; 1 or 10 mM H2O2): significantly inhibited
- effect on TNF-α release ([7]; ATP below 100 μM, 1 or 10 mM H2O2): did not affect
- inhibition at 300 µM ([7]; Homo sapiens, 300 μM ATP, 1 or 10 mM H2O2, LPS-PHA, read-out: inhibition of TNF-α release): ~50%
- plasma lactate dehydrogenase concentration ([8]; 24-week study period): remained stable
- plasma triglyceride concentration ([8]; 24-week study period): remained stable
- decreased sexual interest, compared to the control group ([8]; human, in vivo): normalization
- dizziness, compared to the control group ([8]; human, in vivo): reduction
- dry mouth, compared to the control group ([8]; human, in vivo): improvement
